Results on three molecules are retold here after patent publication US4622244A, “Process for preparation of microcapsules” (The Washington University, priority 1984, dated 1986).

In brackets after ≈: the same amount, converted by molar mass. Where two headings read alike, the source gives them in different places.

The nature of data set [1]: Mouse tail-flick test, morphine challenge. The format is in vivo. As for the experimental part: Microcapsules (177-295 microns in size) so prepared were evaluated by the mouse tail-flick test procedure. Mice (groups of 6) were the test animals. The morphine challenge dose was 10 mg./kg. mouse; test animal response was measured 20 min. after morphine injection. As will be seen, the microcapsules caused more than 50% antagonism 28 days after injection both in the tests in which peanut oil was used as the suspending medium and in the tests where peanut oil plus aluminum monostearate was used as the suspending medium.
*All injections (1 cc/100 g mouse) given through 18 gauge needle; Morphin
challenge dose: 10 mg/kg mouse; Capsule size: 177-295μ; Active content
of capsules initially: 67 wt. %.
Similar studies were run with microcapsules (105 to 177 microns in size) of naltrexone free base (NFB) prepared in the same manner as the naltrexone pamoate microcapsules.
challenge dose: 10 mg/kg mouse; Capsule size: 105-177μ; Active content
On the technique in general: Hot-plate and tail-flick tests time the reaction to a heat stimulus.

Data set [2] is described as follows: Solubility of cyclazocine in solvents (equilibration, solids content after solvent evaporation). The format is physicochemical. As for the experimental part: For example, taking cyclazocine as the solid, injectable drug material, Table I summarizes the solubility data obtained for this drug in a number of solvents.
After equilibration (20-30 min), one ml. of solution was transferred to a tared weighing dish and the solids content determined by solvent evaporation.
In particular, the aromatic solvents have little tendency to dissolve it at room temperature.

Data set [3] in a line: In vitro release/dissolution by end-over-end tumbling in phosphate buffer at 37° C. The format is physicochemical.

As for `O=C1CC[C@@]2(O)[C@H]3Cc4ccc(O)c5c4[C@@]2(CCN3CC2CC2)[C@H]1O5` [NFB], the “% Antagonism” value is 80.0% in data set [1] (7 days, 40 mg unencapsulated NFB/kg mouse, peanut oil); 54.1% in data set [1] (7 days, 40 mg unencapsulated NFB/kg mouse, peanut oil + 2 wt. % AIMS); 39.7% in data set [1] (10 days, 40 mg unencapsulated NFB/kg mouse, peanut oil); 69.5% in data set [1] (10 days, 40 mg unencapsulated NFB/kg mouse, peanut oil + 2 wt. % AIMS); 21.8% in data set [1] (14 days, 40 mg unencapsulated NFB/kg mouse, peanut oil); 48.0% in data set [1] (14 days, 40 mg unencapsulated NFB/kg mouse, peanut oil + 2 wt. % AIMS). Besides, the “% Antagonism” value in data set [1] (21 days, 40 mg unencapsulated NFB/kg mouse, peanut oil) is on record as 8.1%; in data set [1] (21 days, 40 mg unencapsulated NFB/kg mouse, peanut oil + 2 wt. % AIMS), 15.2%.
For the molecule `C[C@H]1[C@H]2Cc3ccc(O)cc3[C@]1(C)CCN2CC1CC1` [cyclazocine, 3-(cyclopropylmethyl)-1,2,3,4,-5,6-hexahydro-6,11-dimethyl-2,6-methano-3-benzazocin-8-ol], the solubility (usually the concentration that dissolves in the medium under given conditions) in data set [2] (25 acetone/75 ethanol (v/v), organic solvent or mixture, 25 acetone/75 ethanol (V/V), 25° C., read-out: Solubility) was found to be 4540 µg/mL (≈ 16.7 mM); in data set [2] (50 acetone/50 ethanol (v/v), organic solvent or mixture, 50 acetone/50 ethanol (V/V), 25° C., read-out: Solubility) it was 4700 µg/mL (≈ 17.3 mM); in data set [2] (75 acetone/25 ethanol (v/v), organic solvent or mixture, 75 acetone/25 ethanol (V/V), 25° C., read-out: Solubility) it was 4740 µg/mL (≈ 17.5 mM); in data set [2] (acetone, organic solvent or mixture, acetone, 25° C., read-out: Solubility) it was 5100 µg/mL (≈ 18.8 mM); in data set [2] (benzene, organic solvent or mixture, benzene, 25° C., read-out: Solubility), 1400 µg/mL (≈ 5.16 mM); in data set [2] (benzene, organic solvent or mixture, benzene, 50° C., read-out: Solubility) it was 2400 µg/mL (≈ 8.84 mM). Also, the solubility was 7600 µg/mL (≈ 28 mM) in data set [2] (chloroform, organic solvent or mixture, chloroform, 25° C., read-out: Solubility); “Insoluble” in data set [2] (cyclohexane, 80° C.); 1700 µg/mL (≈ 6.26 mM) in data set [2] (decahydronaphthalene, organic solvent or mixture, decahydronaphthalene, 25° C., read-out: Solubility); 3400 µg/mL (≈ 12.5 mM) in data set [2] (decahydronaphthalene, organic solvent or mixture, decahydronaphthalene, 130° C., read-out: Solubility); 6640 µg/mL (≈ 24.5 mM) in data set [2] (ethanol, organic solvent or mixture, ethanol, 25° C., read-out: Solubility); 52000 µg/mL (≈ 192 mM) in data set [2] (ethanol, organic solvent or mixture, ethanol, 73° C., read-out: Solubility). In addition, the solubility in data set [2] (ethyl acetate, organic solvent or mixture, ethyl acetate, 4° C., read-out: Solubility) was found to be 2600 µg/mL (≈ 9.58 mM); in data set [2] (ethyl acetate, organic solvent or mixture, ethyl acetate, 25° C., read-out: Solubility) it was 6300 µg/mL (≈ 23.2 mM); in data set [2] (ethyl acetate, organic solvent or mixture, ethyl acetate, 77° C., read-out: Solubility) it was 45000 µg/mL (≈ 166 mM); in data set [2] (isopropanol, organic solvent or mixture, isopropanol, 25° C., read-out: Solubility), 26800 µg/mL (≈ 98.7 mM); in data set [2] (isopropanol, organic solvent or mixture, isopropanol, 80° C., read-out: Solubility), 26800 µg/mL (≈ 98.7 mM); in data set [2] (methanol, organic solvent or mixture, methanol, 25° C., read-out: Solubility), 18400 µg/mL (≈ 67.8 mM). In addition, the solubility in data set [2] (methanol, organic solvent or mixture, methanol, 63° C., read-out: Solubility) was found to be 33200 µg/mL (≈ 122 mM); in data set [2] (methyl ethyl ketone, organic solvent or mixture, methyl ethyl ketone, 4° C., read-out: Solubility), 9100 µg/mL (≈ 33.5 mM); in data set [2] (methyl ethyl ketone, organic solvent or mixture, methyl ethyl ketone, 25° C., read-out: Solubility) it was 16000 µg/mL (≈ 59 mM); in data set [2] (methyl ethyl ketone, organic solvent or mixture, methyl ethyl ketone, 79° C., read-out: Solubility), 59800 µg/mL (≈ 220 mM); in data set [2] (n-butanol, organic solvent or mixture, n-butanol, 4° C., read-out: Solubility), 4500 µg/mL (≈ 16.6 mM); in data set [2] (n-butanol, organic solvent or mixture, n-butanol, 25° C., read-out: Solubility), 15000 µg/mL (≈ 55.3 mM). The solubility in data set [2] (n-butanol, organic solvent or mixture, n-butanol, 117° C., read-out: Solubility) came to 215000 µg/mL (≈ 792 mM); in data set [2] (toluene, organic solvent or mixture, toluene, 25° C., read-out: Solubility), 1000 µg/mL (≈ 3.68 mM); in data set [2] (toluene, organic solvent or mixture, toluene, 35° C., read-out: Solubility), 1500 µg/mL (≈ 5.53 mM); in data set [2] (toluene, organic solvent or mixture, toluene, 50° C., read-out: Solubility), 4000 µg/mL (≈ 14.7 mM); in data set [2] (toluene, organic solvent or mixture, toluene, 100° C., read-out: Solubility), 15000 µg/mL (≈ 55.3 mM); in data set [2] (xylene, organic solvent or mixture, xylene, 25° C., read-out: Solubility) it was 1200 µg/mL (≈ 4.42 mM). In addition, the solubility in data set [2] (xylene, organic solvent or mixture, xylene, 50° C., read-out: Solubility) is 1800 µg/mL (≈ 6.63 mM); in data set [2] (xylene, organic solvent or mixture, xylene, 90° C., read-out: Solubility) it was 17500 µg/mL (≈ 64.5 mM). The “Solubility (in words)” value in data set [2] (range of solvents, room temperature) is “relatively low solubility”. The “Complete dissolution time of unencapsulated drug” value in data set [3] (buffer pH 7.4) is at most 15 min; in data set [3] (same buffer, pH 7.0), at most 15 min.
Turning to `O=C1CC[C@@]2(O)[C@H]3Cc4ccc(O)c5c4[C@@]2(CCN3CC2CC2)[C@H]1O5` [NP], the “% Antagonism” value in data set [1] (7 days, 40 mg unencapsulated NP/kg mouse, peanut oil) is given as 66.1%; in data set [1] (7 days, 40 mg unencapsulated NP/kg mouse, peanut oil + 2 wt. % AIMS) it was 88.3%; in data set [1] (14 days, 40 mg unencapsulated NP/kg mouse, peanut oil) it was 59.1%; in data set [1] (14 days, 40 mg unencapsulated NP/kg mouse, peanut oil + 2 wt. % AIMS) it was 52.9%; in data set [1] (21 days, 40 mg unencapsulated NP/kg mouse, peanut oil), 12.9%; in data set [1] (21 days, 40 mg unencapsulated NP/kg mouse, peanut oil + 2 wt. % AIMS) it was 11.2%. Also, the “% Antagonism” value was 13.9% in data set [1] (28 days, 40 mg unencapsulated NP/kg mouse, peanut oil) and 18.4% in data set [1] (28 days, 40 mg unencapsulated NP/kg mouse, peanut oil + 2 wt. % AIMS).
